The subject of data set [1] is human iPSC-derived cardiomyocytes (iCells). How it is done: Cell Culture. hiPSC-derived cardiomyocytes (iCells) from Cellular Dynamics International (CDT) were thawed in Plating Media (CDI and plated as single cells onto 0.1% Gelatin (Sigma)-coated, 6-well tissue-culture plates (Corning) at a density of 2.2−2.7×10^6 cells per well. Cells were cultured for 3-5 d at 37° C., 7% CO2 prior to re-plating onto xCELLigence® 96-well cardio e-plates (ACEA/Roche Applied Sciences) or microelectrode arrays (MEAs, Multichannel Systems). The media was changed every 2 d after plating using Maintenance Media (CDI), pre-warmed to 37° C. to minimize the temperature shock on cells.
xCELLigence® cardio e-plates and MEA Re-plating. iCells cultured in 6-well plates were harvested by twice washing in dPBS (GIBCO) then lifted with 0.5% Trypsin-EDTA (GIBCO), incubated at 37° C., 7% CO2. Trypsin was quenched with Maintenance Media and cells were collectively centrifuged at 69 g for 5 minutes and resuspended in Maintenance Media to yield the target density. For cardio e-plate reseeding, cells were plated at a target density of 5×10^4 per well, estimating 80% seeding efficiency. Cardio e-plates were coated with 0.1% Gelatin for 3 h at 37° C. Background impedance measurements for cardio e-plates were made with the final volume of media equilibrated to 37° C. but without cells, immediately prior to reseeding the cells. The cells were monitored every 1 h by a 20 s sweep duration by the xCELLigence® RTCA cardio system at its maximum sampling rate (77 Hz) prior to initiating experimentation.
xCELLigence® and MEA Experimentation. Compound stocks were prepared in DMSO or dH2O at 1000 fold the highest tested concentration. For xCELLigence® experimentation, compound stocks were serially diluted in Maintenance Media in a separate 96-well tissue culture plate (Corning) at twice the target concentration. The dilution plate was incubated and equilibrated to 37° C. prior to cell exposure. […] All compounds were tested as n≧3 on multiple cardio e-plates. The xCELLigence® monitored changes to the beating for periodic 20 s sweep durations at 77 Hz.
Data Analysis. Data were first analyzed by the built-in analysis modules of xCELLigence® and MEAs systems, initial results were then exported into in-house developed Microsoft Excel templates for further semi-auto analysis. […] To calculate the “Predicted Proarrhythmic Score” (PPS), we first determined a “Irregular Beat Ratio” (IBR). The IBR was defined as the ratio of arrhythmic beat counts to the total number of beats over one minute. IBR values for each concentration at each selected time-point was averaged from 3 to 5 e-plates. The lowest concentration of drug, that generated a IBR value ≧0.2 was determined and termed “IB20.” Finally, the maximal therapeutic plasma concentration (Cmax) was divided by the IB20 to arrive at the PPS. A PPS >100 is a level of concern for drug-induced arrhythmia. […]

For a further data set, the target named is hERG channel (Homo sapiens, UniProt Q12809). Conditions: cited from earlier work.
In the next data set the test system is TdP. The following applies: clinical; cited from earlier work.
The conditions of data set [2]: maximum therapeutic plasma concentration, cited from earlier work.
In another data set the test system is QT interval. The following applies: in patients / in vivo; cited from earlier work.

One may read the Cmax as the peak of the concentration-time curve.

Each structure is given as a SMILES string. Where two headings read alike, the source gives them in different places.

Sequence of hERG channel (Q12809 whole entry): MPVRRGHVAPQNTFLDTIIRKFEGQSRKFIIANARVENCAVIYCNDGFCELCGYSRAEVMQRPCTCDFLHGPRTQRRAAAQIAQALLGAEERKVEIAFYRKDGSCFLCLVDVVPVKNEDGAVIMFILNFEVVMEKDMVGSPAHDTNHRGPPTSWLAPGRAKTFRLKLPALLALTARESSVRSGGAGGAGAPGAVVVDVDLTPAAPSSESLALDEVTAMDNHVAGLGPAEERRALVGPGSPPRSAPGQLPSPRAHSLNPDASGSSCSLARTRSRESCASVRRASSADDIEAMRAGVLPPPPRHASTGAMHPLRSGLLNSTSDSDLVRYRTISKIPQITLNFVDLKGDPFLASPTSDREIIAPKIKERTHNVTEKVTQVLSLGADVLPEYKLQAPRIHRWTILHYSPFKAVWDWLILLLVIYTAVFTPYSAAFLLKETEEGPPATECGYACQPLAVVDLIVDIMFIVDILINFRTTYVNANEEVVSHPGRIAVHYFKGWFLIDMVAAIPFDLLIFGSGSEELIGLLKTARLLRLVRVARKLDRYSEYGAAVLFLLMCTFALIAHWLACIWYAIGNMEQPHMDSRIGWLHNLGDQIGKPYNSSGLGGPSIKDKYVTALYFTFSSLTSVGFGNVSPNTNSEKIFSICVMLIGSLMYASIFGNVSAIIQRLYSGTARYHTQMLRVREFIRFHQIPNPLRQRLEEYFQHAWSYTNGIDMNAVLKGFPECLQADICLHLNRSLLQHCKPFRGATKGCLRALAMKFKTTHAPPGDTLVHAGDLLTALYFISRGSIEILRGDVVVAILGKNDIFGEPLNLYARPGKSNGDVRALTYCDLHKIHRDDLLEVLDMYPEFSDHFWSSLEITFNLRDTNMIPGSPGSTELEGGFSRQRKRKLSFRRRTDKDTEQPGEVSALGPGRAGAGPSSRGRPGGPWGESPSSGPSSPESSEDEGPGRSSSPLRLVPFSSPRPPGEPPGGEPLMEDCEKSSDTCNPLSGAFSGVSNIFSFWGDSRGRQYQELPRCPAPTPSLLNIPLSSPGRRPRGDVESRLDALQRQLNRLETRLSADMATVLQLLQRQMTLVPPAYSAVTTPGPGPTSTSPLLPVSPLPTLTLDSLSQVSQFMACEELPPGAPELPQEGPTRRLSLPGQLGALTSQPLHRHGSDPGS

Regarding `COc1ccccc1OCC(O)CN1CCN(CC(=O)Nc2c(C)cccc2C)CC1` (stereo not drawn) [Ranolazine], in data set [1], the “alterations in beat patterns / arrhythmic beats” value is on record as “not torsadogenic”. Besides, the “hERG inhibition” value on hERG channel is listed as “inhibit hERG”. Further, the “TdP liability” value with TdP is “free of TdP”. Also, the Cmax in data set [2] (Table I) and in data set [2] (Table II) was 6.01 µM in each case. Moreover, the “QT prolongation” value in the data set with QT interval was “induce QT prolongation”.

These data come from patent US20120107861A1, “METHOD OF DETERMINING RISK OF ARRHYTHMIA” (priority 2010, published 2012).
